Results from patent EP0172321B1, “Squarylium charge generating dye and electrophotographic photoconductor” (International Business Machines Corporation, priority 1984, dated 1986).
Several values for one entry are separate records, joined by “and”; a condition that tells them apart may be missing. Identical values can stand only once.

How the values were obtained:
[1] = system: Salmonella typhimurium: TA1535, TA1537, TA1538, TA98 and TA100; assay: Ames Salmonella/microsome assay, five standard strains; type: cell-based; parameters: unit not given here; settings: Ames plates, DMSO solvent
Procedure: (§1) This mutagenicity testing was performed using DMSO as the solvent. Six dose levels were tested in duplicate, with and without metabolic activation, in five tester strains (TA1535, TA1537, TA1538, TA98, and TA100). The tests were repeated to ensure reproducibility.
Ames test of the 2,4-di-(o-hydroxy-p-pyrrolidino phenyl) cyclobutene diylium-1,3-diolate (hydroxy pyrrolidino squarylium or OHPYRRSQ) of the present invention dye was conducted.
This compound was examined for mutagenic activity in the Ames Salmonella/microsome assay using the five standard strains of Salmonella typhimurium: TA1535, TA1537, TA1538, TA98 and TA100. All assays were performed in duplicate, both in the presence and the absence of a rat-liver metabolic activation system. DMSO was used as the solvent.
The compound was tested on two separate days at doses ranging from […]. Low-level S-9 was used in the first assay and high-level S-9 was used in the confirming assay.

TA98 = assay: Ames test for mutagenicity, tester strain TA98; type: cell-based, Salmonella typhimurium
Procedure: (§2) Ames test of the prior art dye 2,4-di-(o-hydroxy-p-dimethylamino phenyl) cyclobutene diylium-1,3- diolate was then conducted. This dye is of the type shown in Example 11 of aforesaid US-A-3,824,099.
as §1

[2] = Ames test for mutagenicity, tester strain TA98; type: cell-based, Salmonella typhimurium; settings: read-out: TA98 × background
Procedure: as §2, §1

TA1538 = assay: Ames test for mutagenicity, tester strain TA1538; type: cell-based, Salmonella typhimurium
Procedure: as §2, §1

[3] = Ames test for mutagenicity, tester strain TA1538; type: cell-based, Salmonella typhimurium
Procedure: as §2, §1

[4] = purified dye, dimethylamino phenol precursor distilled, DMSO solvent, replicate Test no./Assay no.
[5] = without purification of the dye, replicate Assay no.

| SMILES | Dose level at and above which precipitate was observed [1] | TA98 × background (TA98; [4]) | TA98 × background (TA98; [5]) | fold induction ([2]; ames ta98, purified dye, dimethylamino phenol precursor distilled, DMSO solvent, replicate Test no./Assay no.) | fold induction ([2]; ames ta98, without purification of the dye, replicate Assay no.) | TA1538 × background (TA1538; [4]) | TA1548 × background (TA1538; [5]) | fold induction ([3]; ames ta1538, purified dye, dimethylamino phenol precursor distilled, DMSO solvent, replicate Test no./Assay no., read-out: TA1538 × background) | fold induction ([3]; ames ta1538, without purification of the dye, replicate Assay no., read-out: TA1548 × background) |
| --- | --- | --- | --- | --- | --- | --- | --- | --- | --- |
| O=C1C(=C2C=CC(=[N+]3CCCC3)C=C2O)C([O-])=C1c1ccc(N2CCCC2)cc1O [OHPYRRSQ, 2,4-di-(o-hydroxy-p-pyrrolidinophenyl) cyclobutene diylium-1,3-diolate] | ≥ 500 |  |  |  |  |  |  |  |  |
| CN(C)c1ccc(C2=C([O-])C(=C3C=CC(=[N+](C)C)C=C3O)C2=O)c(O)c1 [OHSQ, 2,4-di-(o-hydroxy-p-dimethylaminophenyl) cyclobutene diylium-1,3-diolate] |  | 2.3 × background and 2.7 × background and 2.90 × background | 3.3 × background | 2.4 | 2.6 | 2.9 × background and 2.8 × background and 3.3 × background | 6.8 × background | 2.9 | 4.9 |
